pIC50: −log10 of the molar value. Where two headings read alike, the source gives them in different places. Peptide text beside a SMILES is read from it.
Test system: HSV1
Format: cell-based, Human herpes simplex virus type 1
Conditions: for efficacy for reducing HSV1 infectivity (in words): Examples 2 and 3
Protocol: African Green Monkey Kidney (Vero) cells were maintained in Eagle's minimum essential medium with Earle's salt (EMEM) and supplemented with 10% foetal calf serum (heat-inactivated), 4 mM L-glutamine, and 1% (v/v) nonessential amino acids, plus penicillin and streptomycin (100 IU/mg and […], respectively) (maintenance medium referred to as 10% EMEM). The cells were incubated at 37° C. in a humidified atmosphere of air with 5% CO2.
On harvesting, monolayers were washed in phosphate-buffered saline (PBS), and dislodged by incubating with trypsin in PBS for 30 min, before inactivating trypsin by addition of an equal volume of 10% EMEM and centrifuging at 500 g (5 min, 4° C.). Cell pellets were resuspended in 10% EMEM, prior to cell counting and seeding of 24-well plates. For antiviral assays, medium containing only 0.5% FCS was used (referred to as 0.5% EMEM).
Three separate passages of HSV1 virus were prepared by infecting Vero cells, and preparing semi-pure suspensions of virus from tissue culture supernatant and cell lysates, before freezing aliquots of virus at −85° C. Viral infectivity was assessed by carrying out plaque assays on serial dilutions of thawed aliquots (expressed in pfu/ml).
Peptides were obtained in lyophilised form from a commercial supplier (AltaBioscience, University of Birmingham or Advanced Biomedical), and were produced at 5 micromole scale. N-terminals were protected by addition of an acetyl group, and the C-terminals were protected by addition of an amide group.
Small quantities of peptide were weighed in sterile Eppendorf tubes, before addition of sufficient 0.5% EMEM to produce a 1.5 mM stock solution, which was frozen at −20° C. in aliquots.
Vero cells were seeded at 125,000 cells per well in 10% EMEM, and were incubated overnight resulting in confluent monolayers. […] Virus stocks (p3) were thawed, and diluted in 0.5% EMEM such that there were around 100 pfu in 100 μl. Each 24-well plate was inoculated separately. Firstly 100 μl of virus stock was added to the peptide or control medium arranged on a 96-well plate. This was incubated at 37° C. for ten minutes before inoculation. Medium was removed from four wells of a 24-well plate containing confluent Vero, and the 200 μl inoculum added to the appropriate well. Once all wells were treated, the 24-well plate was incubated for a further 60-80 minutes. Finally the peptide-containing inoculum was removed, and 1 ml of 1% EMEM containing 1% carboxymethylcellulose was added to each well. Plates were incubated for a further 22 hours or in some experiments 40 hours, before removal of overlay, and addition of 10% formaldehyde in PBS. After a further one hour incubation, fixative was removed, monolayers washed several times with tap water, and stained with carbol fuchsin solubilised in water. After 30 minutes stain was removed, and plates washed several times with tap water, before being air dried. Plaques were counted using an Olympus IX70 Inverting Microscope, and antiviral effect expressed as a percentage of the control value for each peptide concentration. The IC50 was calculated from plots of inhibitory effect against peptide concentration.

[1] = HSV-1, Vero cells, Table 6 (Example 3), read-out: IC50

Row | pIC50 | Compound | efficacy for reducing HSV1 infectivity (in words) | also measured
1 | 4.76 | CC(=O)N[C@@H](Cc1c[nH]c2ccccc12)C(=O)N[C@@H](CCCNC(=N)N)C(=O)N[C@@H](CCCCN)C(=O)N[C@@H](CC(C)C)C(=O)N[C@@H](CCCNC(=N)N)C(=O)N[C@@H](CCCCN)C(=O)N[C@@H](CCCNC(=N)N)C(=O)N[C@@H](CC(C)C)C(=O)N[C@@H](CC(C)C)C(=O)N[C@@H](CC(C)C)C(=O)N[C@@H](CCCNC(=N)N)C(=O)N[C@@H](CCCCN)C(=O)N[C@@H](CC(C)C)C(=O)N[C@@H](CCCNC(=N)N)C(=O)N[C@@H](CCCCN)C(=O)N[C@@H](CCCNC(=N)N)C(=O)N[C@@H](CC(C)C)C(=O)N[C@@H](CC(C)C)C(N)=O [MU 115] (Ac-WRKLRKRLLLRKLRKRLL-NH2) | – | –
2 | 4.41 | CC[C@H](C)[C@H](NC(=O)[C@H](CO)NC(=O)[C@H](CO)NC(=O)[C@H](C)NC(=O)[C@H](CCCNC(=N)N)NC(=O)[C@H](CO)NC(=O)[C@H](Cc1ccccc1)NC(=O)[C@H](Cc1c[nH]cn1)NC(=O)[C@H](CC(=O)O)NC(=O)[C@H](CCC(N)=O)NC(=O)[C@H](CCSC)NC(=O)[C@@H](NC(=O)[C@H](CC(=O)O)NC(=O)[C@H](CC(C)C)NC(=O)[C@H](CCSC)NC(=O)[C@H](Cc1c[nH]cn1)NC(C)=O)C(C)C)C(=O)N[C@H](C(=O)N[C@@H](CC(=O)O)C(=O)N[C@@H](CCC(=O)O)C(=O)N[C@@H](CC(C)C)C(N)=O)[C@@H](C)CC [GIN 29] (Ac-HMLDVMQDHFSRASSIIDEL-NH2) | – | –
3 | 4.56 | CC(=O)N[C@@H](CC(N)=O)C(=O)N[C@@H](CCCNC(=N)N)C(=O)N[C@@H](CCCCN)C(=O)N[C@@H](CC(N)=O)C(=O)N[C@@H](CCCNC(=N)N)C(=O)N[C@@H](CCCCN)C(=O)N[C@@H](CCCNC(=N)N)C(=O)N[C@@H](CC(N)=O)C(=O)N[C@@H](CC(N)=O)C(=O)N[C@@H](CC(N)=O)C(=O)N[C@@H](CCCNC(=N)N)C(=O)N[C@@H](CCCCN)C(=O)N[C@@H](CC(N)=O)C(=O)N[C@@H](CCCNC(=N)N)C(=O)N[C@@H](CCCCN)C(=O)N[C@@H](CCCNC(=N)N)C(=O)N[C@@H](CC(N)=O)C(=O)N[C@@H](CC(N)=O)C(N)=O [MU 11] (Ac-NRKNRKRNNNRKNRKRNN-NH2) | – | –

The next lines start with the compound.

Row | Compound | pIC50 | efficacy for reducing HSV1 infectivity (in words) | also measured
4 | CC(=O)N[C@@H](CCCNC(=N)N)C(=O)N[C@@H](CC(C)C)C(=O)N[C@@H](CC(C)C)C(=O)N[C@@H](CCCNC(=N)N)C(=O)N[C@@H](CC(C)C)C(=O)N[C@@H](CC(C)C)C(=O)N[C@@H](CCCNC(=N)N)C(=O)N[C@@H](CC(C)C)C(=O)N[C@@H](CC(C)C)C(=O)N[C@@H](CCCNC(=N)N)C(=O)N[C@@H](CC(C)C)C(=O)N[C@@H](CC(C)C)C(=O)N[C@@H](CCCNC(=N)N)C(=O)N[C@@H](CC(C)C)C(=O)N[C@@H](CC(C)C)C(=O)N[C@@H](CCCNC(=N)N)C(=O)N[C@@H](CC(C)C)C(=O)N[C@@H](CC(C)C)C(N)=O [GIN 10] (Ac-RLLRLLRLLRLLRLLRLL-NH2) | – | no, or poor, efficacy | pIC50 (HSV1, Vero cells, Table 4 (Example 2), read-out: Apparent IC50): 4.41; pIC50 [1]: 4.41
5 | CC(=O)N[C@@H](CC(C)C)C(=O)N[C@@H](CCCNC(=N)N)C(=O)N[C@@H](CCCCN)C(=O)N[C@@H](CC(C)C)C(=O)N1CCC[C@H]1C(=O)N[C@@H](CCCCN)C(=O)N[C@@H](CCCNC(=N)N)C(=O)N[C@@H](CC(C)C)C(=O)N[C@@H](CC(C)C)C(=O)N[C@@H](CC(C)C)C(=O)N[C@@H](CCCNC(=N)N)C(=O)N[C@@H](CCCCN)C(=O)N[C@@H](CC(C)C)C(=O)N1CCC[C@H]1C(=O)N[C@@H](CCCCN)C(=O)N[C@@H](CCCNC(=N)N)C(=O)N[C@@H](CC(C)C)C(=O)N[C@@H](CC(C)C)C(N)=O [MU 44] (Ac-LRKLPKRLLLRKLPKRLL-NH2) | < 4.52 | – | –
6 | CSCC[C@H](NC(=O)[C@H](CCCNC(=N)N)NC(=O)[C@H](C)NC(=O)[C@H](CCCNC(=N)N)NC(=O)[C@H](CC(C)C)NC(=O)[C@H](CCCNC(=N)N)NC(=O)[C@H](CCC(=O)O)NC(=O)CNC(=O)[C@H](CCC(=O)O)NC(=O)[C@H](CCSC)NC(=O)[C@H](CCCNC(=N)N)NC(=O)[C@H](C)NC(=O)[C@H](CCCNC(=N)N)NC(=O)[C@H](CC(C)C)NC(=O)[C@H](CCCNC(=N)N)NC(=O)[C@H](CCC(=O)O)NC(=O)CNC(C)=O)C(=O)N[C@@H](CCC(=O)O)C(N)=O [GIN 14] (Ac-GERLRARMEGERLRARME-NH2) | < 4.40 | no, or poor, efficacy | –
7 | CC(=O)N[C@@H](CC(C)C)C(=O)N[C@@H](CCCNC(=N)N)C(=O)N[C@@H](CCCCN)C(=O)N[C@@H](CC(C)C)C(=O)N[C@@H](CCCNC(=N)N)C(=O)N[C@@H](CCCCN)C(=O)N[C@@H](CCCNC(=N)N)C(=O)N[C@@H](CC(C)C)C(=O)N[C@@H](CC(C)C)C(=O)N[C@@H](CC(C)C)C(=O)N[C@@H](CCCNC(=N)N)C(=O)N[C@@H](CCCCN)C(N)=O [GIN 5] (Ac-LRKLRKRLLLRK-NH2) | < 4.40 | no, or poor, efficacy | –
8 | CC(=O)N[C@@H](CC(=O)O)C(=O)N[C@@H](Cc1c[nH]c2ccccc12)C(=O)N[C@@H](CC(C)C)C(=O)N[C@@H](CCCCN)C(=O)N[C@@H](C)C(=O)N[C@@H](Cc1ccccc1)C(=O)N[C@@H](Cc1ccc(O)cc1)C(=O)N[C@@H](CC(=O)O)C(=O)N[C@@H](CCCCN)C(=O)N[C@H](C(=O)N[C@@H](C)C(=O)N[C@@H](CCC(=O)O)C(=O)N[C@@H](CCCCN)C(=O)N[C@@H](CC(C)C)C(=O)N[C@@H](CCCCN)C(=O)N[C@@H](CCC(=O)O)C(=O)N[C@@H](C)C(=O)N[C@@H](Cc1ccccc1)C(N)=O)C(C)C [GIN 22] (Ac-DWLKAFYDKVAEKLKEAF-NH2) | – | – | pIC50 (HSV1, Vero cells, Table 5 (Example 2), read-out: Apparent IC50): 4.44; pIC50 [1]: 4.44
9 | CC(=O)N[C@@H](Cc1ccc(O)cc1)C(=O)N[C@@H](CCCNC(=N)N)C(=O)N[C@@H](CCCCN)C(=O)N[C@@H](Cc1ccc(O)cc1)C(=O)N[C@@H](CCCNC(=N)N)C(=O)N[C@@H](CCCCN)C(=O)N[C@@H](CCCNC(=N)N)C(=O)N[C@@H](Cc1ccc(O)cc1)C(=O)N[C@@H](Cc1ccc(O)cc1)C(=O)N[C@@H](Cc1ccc(O)cc1)C(=O)N[C@@H](CCCNC(=N)N)C(=O)N[C@@H](CCCCN)C(=O)N[C@@H](Cc1ccc(O)cc1)C(=O)N[C@@H](CCCNC(=N)N)C(=O)N[C@@H](CCCCN)C(=O)N[C@@H](CCCNC(=N)N)C(=O)N[C@@H](Cc1ccc(O)cc1)C(=O)N[C@@H](Cc1ccc(O)cc1)C(N)=O [GIN 41] (Ac-YRKYRKRYYYRKYRKRYY-NH2) | – | also had efficacy | –

Source: US7691382B2, “Antiviral polypeptides comprising tandem repeats of APOE 141-149 and variants thereof” (priority 2003, dated 2010)
